Patent US20110039809A1 (priority 2008, published 2011)

Tests used:
[1] = cited from earlier work
[2] = Clinical trial: plasma 25-OH D after single oral bolus (pharmacokinetics); conditions: single oral dose 140 μg of each active
Protocol: Subjects were randomly assigned to one of […] treatment groups (i.e., daily, weekly, bolus as single dose, and bolus as combination dose). Each group included five subjects. They are followed for four months in Zürich, Switzerland during the winter.
Equimolar quantities of both substances were investigated. The regimen was based on 20 μg/day (or its equivalent on a weekly basis) of 25-OH D3.
Each dosage was consumed orally at breakfast. The duration of the study was four months for the “Daily” and “Weekly” groups. Subjects enrolled in the “Bolus” group consumed orally a single dosage at the second study visit.
Plasma concentrations of 25-OH D3 (e.g., peak and steady state) were determined by obtaining samples from the subjects at various times after the dosage was ingested. […] The assessments continued on Monday of Weeks 3, 5, 7, 9, 11, 13 and 15.

[3] = tested on: bone-specific alkaline phosphatase (BAP); assay: Clinical trial: bone-specific alkaline phosphatase (BAP), serum marker; assay type: in vivo, human; conditions: for BAP, GLM least square mean after 4 months: daily 20 μg or weekly 140 μg oral, adjusted for baseline, age, body mass index, postmenopausal women
Text: (§1) Each group included five subjects.
(§2) Equimolar quantities of both substances were investigated.
(§3) Each dosage was consumed orally at breakfast.
(§4) Treatment duration was 4 months.

deoxypyridinoline (DPD) = assay: Clinical trial: bone resorption marker deoxypyridinoline (DPD), urine marker; assay type: in vivo, human; conditions: for DPD, GLM least square mean after 4 months: daily 20 μg or weekly 140 μg oral, adjusted for baseline, age, body mass index, postmenopausal women
Text: as §1, §2, §3, §4

[4] = daily 20 μg or weekly 140 μg, 4 months, repeated measurement analysis over 13 visits
[5] = daily or weekly treatment, identical dosages, 4 months

Compound | Time span with increase in plasma 25-OH D levels by at least 30 nmol/L [2] | BAP, GLM least square mean after 4 months [3] | DPD, GLM least square mean after 4 months (deoxypyridinoline (DPD)) | further results
25-hydroxyvitamin D | – | – | – | Blood concentration above which hypercalcemia may occur ([1]; in vivo): greater than 375 nmol/L
C=C1CC[C@H](O)C/C1=C/C=C1\CCC[C@]2(C)[C@@H]([C@H](C)CCCC(C)C)CC[C@@H]12 [Vitamin D3, cholecalciferol] | no increase of that magnitude was observed | 76.5 IU/L | 9.8 nmol/mmol creatine | –
C=C1CC[C@H](O)C/C1=C/C=C1\CCC[C@]2(C)[C@@H]([C@H](C)CCCC(C)(C)O)CC[C@@H]12 [25-OH D3, 25-hydroxyvitamin D3] | 4 to 49 h | 74.7 IU/L | 8.2 nmol/mmol creatine | BAP change vs. Daily/weekly Vitamin D3 [3, 4]: −2.4%; Reduction of BAP versus Vitamin D3 [3, 5]: 2.4%; DPD change vs. Daily/weekly Vitamin D3 (deoxypyridinoline (DPD); [4]): −17.0%; Reduction of DPD versus Vitamin D3 (deoxypyridinoline (DPD); [5]): 17.0%
Vitamin D | – | – | – | Blood concentration of 25-hydroxyvitamin D after ingestion of the safe upper level as dietary supplement ([1]; 250 μg/day vitamin D): about 200 nmol/L
